The structures appear in SMILES notation.

The test system of series [1] is androgen receptor WT, T878A, L702H and H875Y and BRD4 protein. Kind of series: Ternary complex formation in TRex293 cells with doxycycline inducible androgen receptor (AR capture / HRP-BRD4 antibody ELISA). It is filed as cell-based. Conditions: Trex293 cells engineered to express wtAR and the T878A, L702H and H875Y AR mutants, 1 hour treatment, FIG. 2. The procedure:
Compound II-5 was tested for ability to form a ternary complex containing Compound II-5, androgen receptor, and bromodomain-containing protein 4 (BRD4) protein using TRex293 cells induced to express elevated levels of androgen receptor.
TRex293 cells expressing doxycycline inducible androgen receptor WT, T878A, L702H and H875Y were generated and cultured in DMEM medium supplemented with 10% heat inactivated fetal bovine serum, and 1% pen-strep (culture medium). 25,000 cells were seeded per well in 100 μL of phenol red free DMEM containing 10% CSS, 1% pen strep, and 10 ng/mL doxycycline in a clear 96-well poly-D-lysine coated plate. Plates were incubated at 37° C. Black, opaque 96-well MaxiSorp plates were coated with 50 μL of androgen receptor antibody diluted in phosphate buffered saline (PBS). The coated plates were sealed and placed at 4° C. overnight. Plates coated with androgen receptor antibody were washed three times with 200 μL 1× tris -buffered saline plus 0.1% Tween20 (TBST), then blocked with 200 μL of 3% bovine serum albumin in TBST for 1 hour at room temperature. Test compound titrations were diluted in culture medium. 100 μL of the test compound/media mixture was added to the cell plate. After treatment, plates were incubated for 1 hour. Then, cells were washed once with 250 μL 1× PBS. […] Fluorescent endpoint read was conducted on a SpectraMax plate reader.
For orientation: ELISA stands for enzyme-linked immunosorbent assay.

Series [2] can be described thus: Stability analysis of Crystal Form A and Crystal Form B in solvent suspensions (XRPD). It is filed as physicochemical. The procedure: The obtained suspensions were stirred at 25° C. and 50° C. for 1 week, respectively. Solid parts (wet cakes) were isolated by centrifugation filtration at […] temperature and investigated by XRPD.
The target of series [3] is T1, androgen receptor (AR) and bromodomain-containing protein 4 (BRD4) protein (Homo sapiens, UniProt O60885+P10275).
T1 construct: endogenous in cells; host or cells: VCaP cells
T1 sequence (P10275 whole entry, other chains not shown): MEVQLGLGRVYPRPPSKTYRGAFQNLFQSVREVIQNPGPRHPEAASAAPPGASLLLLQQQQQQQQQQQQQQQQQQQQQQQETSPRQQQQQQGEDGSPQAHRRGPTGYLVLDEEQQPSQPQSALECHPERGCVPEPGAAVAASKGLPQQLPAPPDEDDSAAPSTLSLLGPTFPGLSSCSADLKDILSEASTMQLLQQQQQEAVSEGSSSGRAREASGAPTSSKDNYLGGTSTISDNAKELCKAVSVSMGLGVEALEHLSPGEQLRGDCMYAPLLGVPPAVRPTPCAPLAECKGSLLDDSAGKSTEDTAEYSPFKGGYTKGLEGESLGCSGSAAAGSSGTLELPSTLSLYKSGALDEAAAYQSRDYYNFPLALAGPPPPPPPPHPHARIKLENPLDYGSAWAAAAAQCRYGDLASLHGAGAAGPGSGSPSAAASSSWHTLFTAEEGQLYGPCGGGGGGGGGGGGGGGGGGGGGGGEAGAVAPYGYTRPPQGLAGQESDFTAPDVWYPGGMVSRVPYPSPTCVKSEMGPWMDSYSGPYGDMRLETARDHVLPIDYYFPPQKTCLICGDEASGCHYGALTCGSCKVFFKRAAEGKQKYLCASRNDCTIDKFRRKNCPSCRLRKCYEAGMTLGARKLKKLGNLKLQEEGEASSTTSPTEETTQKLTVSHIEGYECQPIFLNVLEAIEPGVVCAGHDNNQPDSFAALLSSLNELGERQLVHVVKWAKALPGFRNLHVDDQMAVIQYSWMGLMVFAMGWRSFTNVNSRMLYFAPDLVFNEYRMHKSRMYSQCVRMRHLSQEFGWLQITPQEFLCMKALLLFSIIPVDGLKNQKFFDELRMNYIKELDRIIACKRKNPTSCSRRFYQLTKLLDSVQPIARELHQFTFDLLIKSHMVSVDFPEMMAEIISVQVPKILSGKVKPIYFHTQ
Kind of series: Ternary complex formation in VCaP cells (AR capture antibody ELISA). In kind it is cell-based. The following applies: FIG. 1. The procedure: Exemplary compounds were tested for ability to form a ternary complex containing a test compound, androgen receptor (AR), and bromodomain-containing protein 4 (BRD4) protein.
VCaP cells were cultured in ATCC DMEM medium supplemented with 10% ATCC fetal bovine serum, and 1% pen-strep (culture medium). 5000 cells were seeded in 100 μL of culture medium, per well in a clear 96-well poly-D-lysine coated plate. Plates were equilibrated to room temperature for 30 minutes. After equilibration, plates were incubated at 37° C. with 5% CO2 in a humidified tissue culture incubator. Black, opaque 96-well MaxiSorp plates were coated with 50 μL of a solution of androgen receptor antibody diluted in phosphate buffered saline (PBS). The coated plates were then quick-spun for 30 seconds before being sealed and placed in a fridge at 4° C. overnight. Test compounds were titrated in 100% DMSO the day before the experiment was performed and were left sealed in the dessicator overnight. QuantaRed™ Enhanced Chemifluorescent HRP Substrate Kit was taken out from 4° C. to warm up to room temperature. Plates coated with androgen receptor antibody were washed three times with 200 μL 1× Tris -Buffered Saline plus 0.1% Tween20 (TBST), then blocked with 200 μL 3% bovine serum albumin in TBST for approximately […] on a room temperature plate shaker at 500 rpm for 1 hour. […]

For the compound `COc1cc(O[C@H]2C(C)(C)[C@H](NC(=O)c3cnc(N4CCC5(CC4)CC(Oc4ccc(C6=N[C@@H](Cc7ncco7)c7nnc(C)n7-c7sc(C)c(C)c76)cc4)C5)nc3)C2(C)C)ccc1C#N` [II-5, N-[(1r,3r)-3-(4-cyano-3-methoxy-phenoxy)-2,2,4,4-tetramethyl-cyclobutyl]-2-[2-[4-[(9S)-4,5,13-trimethyl-9-(oxazol-2-ylmethyl)-3-thia-1,8,11,12-tetrazatricyclo[8.3.0.0^2,6]trideca-2 (6),4,7,10,12-pentaen-7-yl]phenoxy]-7-azaspiro[3.5]nonan-7-yl]pyrimidine-5-carboxamide], the “ternary complex formation between Compound II-5, androgen receptor, and BRD4” value in series [1] was “detected”. Besides, the “XRPD form after suspension” value was “Crystal Form A” in series [2] (about 3 mg Crystal Form A + 3 mg Crystal Form B in saturated Acetone solution, 25° C. for 1 week); “Crystal Form A” in series [2] (about 3 mg Crystal Form A + 3 mg Crystal Form B in saturated Acetone solution, 50° C. for 1 week); “Crystal Form A” in series [2] (about 3 mg Crystal Form A + 3 mg Crystal Form B in saturated Acetonitrile solution, 25° C. for 1 week); “Crystal Form A” in series [2] (about 3 mg Crystal Form A + 3 mg Crystal Form B in saturated Acetonitrile solution, 50° C. for 1 week); “Crystal Form A” in series [2] (about 3 mg Crystal Form A + 3 mg Crystal Form B in saturated EtOH solution, 25° C. for 1 week); “Crystal Form A” in series [2] (about 3 mg Crystal Form A + 3 mg Crystal Form B in saturated EtOH solution, 50° C. for 1 week). Besides, the “XRPD form after suspension” value in series [2] (about 3 mg Crystal Form A + 3 mg Crystal Form B in saturated THF/Heptane (1/1, v/v) solution, 25° C. for 1 week) is given as “Crystal Form A”; in series [2] (about 3 mg Crystal Form A + 3 mg Crystal Form B in saturated THF/Heptane (1/1, v/v) solution, 50° C. for 1 week), “Crystal Form A”. The “ternary complex formation between test compound, androgen receptor, and BRD4” value in series [3] is reported as “detected”.

For the origin of these results see patent US12668599B2, “Heterobifunctional compounds and methods of treating disease” (Halda Therapeutics OpCo, Inc., priority 2023, dated 2026).
